Assay: gradient 5% acetonitrile 3 min, to 50% in 2 min, to 85% in 15 min, held 3 min, 100 µL/min
Details: column: Zorbax Extend-C18 2.1 x 50 mm; eluents: water / acetonitrile, 0.1% formic acid
How it was run: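 A Zorbax Extend-C18 column (2.1 × 50 mm, 1.8 μm) run at 100 μL/min with water and acetonitrile, both containing 0.1% formic acid, separated mixtures of ~100 pure standards. The HPLC was coupled to a quadrupole time-of-flight mass spectrometer operated in positive and negative ionization mode, with dead and dwell volumes of 40 μL and 900 μL. Each retention time was taken from a computationally picked adduct peak that was then manually inspected.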

Compound | RP-LC retention time [s]
COc1ccc(NC(=O)C2CC(=O)N(c3ccc4c(c3)CCN4C(C)=O)C2)cc1F (configuration not stated) | 687
O=C(NC1CCCCC1)c1ncoc1-c1ccccc1C(=O)N1CCCC1 | 798
CCCN(C)c1nccn2c(=O)n(CC(=O)Nc3ccc4c(c3)OCCO4)nc12 | 642
CCCCOC(=O)c1ccc(Nc2nc(C(=O)OCC)nc3ccccc23)cc1 | 1070
COc1ccccc1N1CCN(c2ccc(-c3nc(-c4ccccc4)no3)cn2)CC1 | 1350
CCCC(NC(=O)c1ccc(N(C)C)cc1)C(=O)Nc1nc2ccccc2[nH]1 (configuration not stated) | 706
Cc1cc(C)nc(SCC(=O)Nc2nc(-c3ccccc3)c(-c3ccccc3)o2)n1 | 1050
O=C([C@@H]1C[C@H](Oc2cccnc2)CN1C(=O)CCC1CCCC1)N1CCCC1 | 640
CCn1ccc(C(=O)N2CCC3(CC2)c2nccn2-c2ccccc2CN3CC(C)C)n1 | 599
Cc1ccc(C(=O)NCC(=O)N2CCCc3ccccc32)s1 | 830
Cc1ccc(NC(=O)C2CCN(S(=O)(=O)c3cc(C(=O)N4CCCC4)cs3)CC2)cc1Cl | 916
CCCn1c(=O)sc2cc(S(=O)(=O)N3CCC(C(=O)N(C)C4CCCCC4)CC3)ccc21 | 1020
O=C(NCCC1=CCCCC1)c1csc(Nc2ncccn2)n1 | 797
COc1ccc(C(=O)N2C[C@@H]3C[C@H](NC(=O)c4cccs4)[C@H]2C3)c(C)c1 | 628
CCOc1ccc(-n2c(N(CC)CC)nc3cc(C(=O)OC)ccc3c2=O)cc1 | 1230
CCCn1nc2n(c1=O)CCN(Cc1cn[nH]c1-c1ccc(C)c(C)c1)C2 | 644
O=c1ccc(-c2nc(-c3ccncc3)no2)nn1Cc1ccc(Cl)cc1 | 909
O=C(c1cccc(Cl)c1)N1CCN(c2cc(-c3ccccc3)[nH]n2)CC1 | 763
COc1cccc(NC(=O)N2CCC(n3c(C(F)(F)F)nc4cccnc43)CC2)c1 | 861
CCOc1ccccc1C(=O)N1CCN(c2nnc(SCC(=O)NC(C)C)s2)CC1 | 673
COc1ccc(NC2=NS(=O)(=O)C(c3ccc(OC)cc3)=C2C)cc1 | 910
CCOC(=O)c1[nH]c(C)c(S(=O)(=O)N2CCN(c3ccccn3)CC2)c1C | 640

Compound | RP-LC retention time [s]
O=C(Cn1c(=O)cc(-c2nc(C3CC3)no2)c2ccccc21)NCc1ccc(Cl)cc1 | 979
COC(=O)c1cccc(Nc2c(-c3ccc(F)cc3)nc3cnc(Br)cn23)c1 | 980
CCOC(=O)CCC(=O)Nc1nnc(-c2sc(C)nc2C)o1 | 621
Cc1cccc(C)c1NC(=O)C1CCN(S(=O)(=O)c2ccc3c(c2)NC(=O)C(C)O3)CC1 (configuration not stated) | 824
CCN1CCn2cc(S(=O)(=O)Nc3ccc(C)cc3F)cc2C1=O | 725
CCCNC(=O)C1CCN(c2ccc(SCC(=O)Nc3cccc(C)c3C)nn2)CC1 | 642
CCCc1cc(N2CCN(C(=O)C3CCC3)CC2)nc2nnc(C)n12 | 614
O=C(Nc1ccc(F)cc1)Nc1c(-c2ccccc2)nc2ccccn12 | 651
CCOC(=O)c1ccc(Nc2c(C(=O)N3CCCCC3C)cnc3nc(C)ccc23)cc1 (configuration not stated) | 653
Cc1nc2cccnc2n1CC1CCCN(S(=O)(=O)c2ccc3c(c2)CCCC3)C1 (configuration not stated) | 831
Cc1cccc(CN2CCn3c(nnc3[C@@H]3C[C@@H](O)CN3Cc3ccccc3)C2)c1 | 650
COc1ccc2c(c1)C1CC(C)(O2)N(C)C(=O)C1S(=O)(=O)c1ccc(C)c(C)c1 (configuration not stated) | 1030
COc1ccc(OC)c(S(=O)(=O)NCC(O)Cc2ccccc2)c1 (configuration not stated) | 736
c1ccc(-c2nnc(-c3cccnc3NCc3ccc4c(c3)OCO4)o2)cc1 | 1160
CC1CCN(c2cncnc2-n2cc(NC(=O)NC(C)(C)C)cn2)CC1 | 722
COCC(=O)N(CC(=O)N1CCc2sccc2C1COc1ccc(C)cc1C)CC1CCCO1 (configuration not stated) | 929
CCCCC(=O)Nc1ccc2nc(N3CCN(c4cc(Cl)ccc4C)CC3)cc(C(=O)O)c2c1 | 851
CCOc1cccc(CN2C[C@@H]3C(=O)N(CCOC)C(=O)[C@@H]3C2)c1 | 578
COc1ccc(-c2cc3c(=O)n(Cc4nc(-c5ccccc5OC)oc4C)ccn3n2)cc1OC | 990
Nn1c(Cc2ccccc2)nnc1Cc1ccccc1 | 744
COc1ccc(CNC(=O)C2(C)CCCN(S(=O)(=O)c3ccc(Cl)cc3)C2)cc1 (configuration not stated) | 981
Cc1cccc(CN2C(=O)CN(S(C)(=O)=O)CC2(C)C(=O)NCc2ccccc2)c1 (configuration not stated) | 838

Compound | RP-LC retention time [s]
Cc1ccc(CN2CCC(CNC(=O)CSc3nc4ccccc4n(C)c3=O)C2)cc1 (configuration not stated) | 634
Cc1noc(-c2ccc(OC3CN(C(=O)NC4CCCCC4)C3)cc2)n1 | 846
O=C(Cc1csc(Nc2ccccc2)n1)NCCC1=CCCCC1 | 865
Cc1ccc(C(=O)N2C[C@@H](F)C[C@H]2C(=O)N2CCCCC2)c(C)c1 | 740
CCOc1ccc(-c2noc(CN3N=NC4C(=O)N(c5ccc(OC)cc5)C(=O)C43)n2)cc1OC (configuration not stated) | 924
CC(=O)NCc1cn[nH]c1-c1ccc(Cl)cc1 | 625
COc1ccc(-c2cn3c(CC(=O)Nc4cccnc4)csc3n2)cc1OC | 581
COC(=O)c1ncn2c1C(=O)N(C1CC1)C(C)(C(=O)NCc1ccccc1Cl)C2 (configuration not stated) | 658
NC[C@@H]1O[C@H](c2ccccc2)Cc2c1ccc(O)c2O | 662
Cc1c(-c2noc(-c3ccccc3F)n2)nnn1Cc1cccc(F)c1 | 1050
Cc1nc(N2CCN(c3ncccn3)CC2)nc2c1C(=O)CC(c1ccc(F)cc1)C2 (configuration not stated) | 1190
CC1(C(=O)NCc2ccc(F)cc2)Cn2cnc(C(=O)Nc3cc(F)ccc3F)c2C(=O)N1C1CC1 (configuration not stated) | 847
CC(C)n1cnc(S(=O)(=O)N2CCC(C(=O)NC3CCCCCC3)CC2)c1 | 736
O=C(Cc1nnc2c(-c3nc(C4CC4)no3)cccn12)NC1CCCC1 | 661
Cc1cccc(Cn2c(=O)n(CCNC(=O)c3cnccn3)c3ncccc32)c1 | 722
C/C=C/c1cc2c(c(=O)o1)C(=O)[C@@H](O)[C@H](C)O2 | 695
Cc1ccc(NC(=O)NC2CCN(c3ccccc3)C2=O)c(C)c1 (configuration not stated) | 823
CCOc1cc(-c2noc(-c3ncn4c3COC(c3ccc(OC)cc3)C4)n2)ccc1OC (configuration not stated) | 992
COc1ccc(Cc2nnc(SCC(=O)Nc3nc(-c4ccccc4)cs3)o2)cc1 | 985
O=C(NCC1CCS(=O)(=O)C1)c1cc(-c2ccc(F)cc2)n[nH]1 (configuration not stated) | 643
CCc1nn2c(CNC(=O)c3ccccc3)c(-c3ccccc3)nc2s1 | 870
Cc1sc(-c2noc(C3CCC3)n2)cc1NC(=O)c1ccc(C(F)(F)F)cc1 | 1150

Compound | RP-LC retention time [s]
COc1ccc(CN2C[C@@H]3C(=O)N(CCCN4CCCC4=O)C(=O)[C@@H]3C2)cc1 | 589
Cn1c(=O)c(SCC(=O)NCc2cccc(Cl)c2)nc2ccccc21 | 819
CCc1noc(CC2CCOC3(CCN(S(=O)(=O)c4c(C)cc(C)cc4C)CC3)C2)n1 (configuration not stated) | 1190
CCN(Cc1ccccc1)C(=O)CN1C(=O)CCCc2cc(S(=O)(=O)N3CCOCC3)ccc21 | 825
O=C(NCc1csc(-c2ccccc2)n1)C1CCN(S(=O)(=O)c2ccccc2F)CC1 | 914
O=C(NCc1csc(-c2ccccc2)n1)C1CCN(S(=O)(=O)c2ccc(F)c(Cl)c2)CC1 | 987
Cn1c(=O)c(=O)n(C)c2cc(N3CCCC3)c(NC(=O)Cc3ccc(Cl)cc3)cc21 | 685
COc1cccc(S(=O)(=O)N2C[C@@H]3C[C@H](NC(=O)c4cccs4)[C@H]2C3)c1 | 854
CCCN1C(=O)COc2ccc(-c3noc(/C=C/c4ccccc4OC)n3)cc21 | 1270
O=C(Nc1ccc2c(c1)OCCO2)C1CCN(c2cncnc2N2CCCCC2)CC1 | 673
O=C(NCC(=O)N1CCN(c2ncccn2)CC1)c1c[nH]c2ccccc12 | 615
COc1ccc(OC)c(NC(=O)C2Oc3ccccc3NC2=O)c1 (configuration not stated) | 773
COc1ccc(Cc2nnc(SCC(=O)Nc3nc(-c4ccccc4)c(C)s3)o2)cc1 | 1020
CCN1C(=O)c2cccnc2Sc2cc(NC(=O)Cc3ccccc3C)ccc21 | 898
COc1ccc(NC(=O)Cn2c(C)nc3c(sc4nc(-c5ccccc5)ccc43)c2=O)cc1 | 988
O=C(O)CCN1C(=O)C2C3C=CC(C3)C2C1=O (configuration not stated) | 570
O=C(NC1CC1)c1nc(C(=O)N2CCN(c3ccccn3)CC2)cs1 | 559
Cc1ccc(NC(=O)CSc2nnc3c4cc(-c5ccc(Cl)cc5)nn4ccn23)cc1F | 1010
Cc1ccccc1CNC(=O)C1CCCN(C(=O)c2[nH]c(C)c(C(=O)OC(C)C)c2C)C1 (configuration not stated) | 896
CC(C)c1cccc(NS(=O)(=O)c2cc3n(c2)CCCNC3=O)c1 | 723
Cc1cc(C)c(S(=O)(=O)N2CCCC2c2nc(-c3ccccc3C)no2)c(C)c1 (configuration not stated) | 1330

Source: the METLIN SMRT retention time set (Domingo-Almenara et al. 2019)
